The values below come from patent publication US9150555B2, “Amide derivative and use thereof” (Mitsubishi Tanabe Pharma Corporation, priority 2010, dated 2015).

One data set has as its target hERG (Homo sapiens, UniProt Q12809). As to the kind of experiment: Effects on hERG current (whole-cell clamping). The conditions noted are these: human, HEK 293 cells that express hERG, pH 7.4, hERG inhibition rate (%) (1 μM), 1 μM; tail peak current; hERG-expressed HEK 293 cells. (hERG is a cardiac potassium channel; its block is linked to QT prolongation.)
In data set [1] the test system is IL-17 production of mouse spleen cells stimulated by rm-IL-23. As to the kind of experiment: Production of IL-17 induced when mouse spleen cells were stimulated by recombinant mouse interleukin-23 (rm-IL-23). The data set is classed as cell-based. The conditions noted are these: Mus musculus, 72 h, inhibition of IL-17 production, DBA/1J mouse spleen cells, rm-IL-23 1 nmol/L, ELISA. The method, then:
Effect on Production of IL-17 Induced when Mouse Spleen Cells were Stimulated by Recombinant Mouse Interleukin-23 (rm-IL-23)
An RPMI1640 (Sigma-Aldrich) was used as a medium, to which penicillin G potassium (50 units/mL; Gibco), streptomycin (50 μg/mL; Gibco) and 2-mercaptoethanol (50 μmol/l; Sigma-Aldrich) were added, and then 10% of fetal calf serum (FCS; Cell Culture Technology) inactivated at 56° C. for 30 minutes was added and used in the Test. The test compound was dissolved in dimethylsulfoxide and diluted with 10% FCS-containing RPMI1640 medium to a desired concentration and used in the test. The spleens were aseptically taken out from 6-7 week-old male DBA/1J mice (Charles River Japan, Inc.) and a single cell suspension of spleen cells was prepared and hemolyzed by hypotonic treatment with a mixture of 0.83% aqueous solution of ammonium chloride and Tris-HCl buffer of pH 7.65 (9:1). A cell suspension prepared by 10% FCS-containing RPMI1640 medium was added to flat-bottomed 96 well microtestplate at 2×10^5 cells/well. Test compounds and rm-IL-23 (R&D systems) were diluted with a medium to 1 to 1,000 nmol/L, and 1 nmol/L of the final concentration respectively, which were added and cultured at 37° C., 5% carbon dioxide and 95% air for 72 hours. After completion of the culture, culture supernatant was sampled and an amount of IL-17 production was determined by ELISA method. After sampling the supernatant, WST-8 (Seikagaku Corporation) was added at 10 μl/well and cultured at 37° C., 5% carbon dioxide and 95% air for 4 hours. Then, absorbance (O.D.: Optical Density) at 450 nm was measured by a microplate reader and the value was adopted as an index of cell survivability. An inhibition rate (%) was calculated according to the following formula on the basis of an average of an amount of IL-17 production and a O.D. values of the well containing a test compound of each concentration.
Based on the dose-response curve obtained by plotting the inhibition rate in the longitudinal axis and concentration in the horizontal axis, the concentration of the compound which inhibits the level to 50% of the value of the control group (IC50; nmol/L) was determined by linear regression analysis. The results was shown in the next Table 1
Background: An ELISA detects its analyte on a solid surface through an enzyme-linked reagent.

In general, inhibition refers to the percentage by which the read-out fell short of the control. A lower inhibition goes with little suppression. Usually pIC50 stands for the negative decadic logarithm of the IC50, by convention in mol/L.

Each structure is given as a SMILES string. pIC50: −log10 of the molar value. Counter-ions that a name gives are not always drawn.

Chain of hERG (Q12809 whole entry): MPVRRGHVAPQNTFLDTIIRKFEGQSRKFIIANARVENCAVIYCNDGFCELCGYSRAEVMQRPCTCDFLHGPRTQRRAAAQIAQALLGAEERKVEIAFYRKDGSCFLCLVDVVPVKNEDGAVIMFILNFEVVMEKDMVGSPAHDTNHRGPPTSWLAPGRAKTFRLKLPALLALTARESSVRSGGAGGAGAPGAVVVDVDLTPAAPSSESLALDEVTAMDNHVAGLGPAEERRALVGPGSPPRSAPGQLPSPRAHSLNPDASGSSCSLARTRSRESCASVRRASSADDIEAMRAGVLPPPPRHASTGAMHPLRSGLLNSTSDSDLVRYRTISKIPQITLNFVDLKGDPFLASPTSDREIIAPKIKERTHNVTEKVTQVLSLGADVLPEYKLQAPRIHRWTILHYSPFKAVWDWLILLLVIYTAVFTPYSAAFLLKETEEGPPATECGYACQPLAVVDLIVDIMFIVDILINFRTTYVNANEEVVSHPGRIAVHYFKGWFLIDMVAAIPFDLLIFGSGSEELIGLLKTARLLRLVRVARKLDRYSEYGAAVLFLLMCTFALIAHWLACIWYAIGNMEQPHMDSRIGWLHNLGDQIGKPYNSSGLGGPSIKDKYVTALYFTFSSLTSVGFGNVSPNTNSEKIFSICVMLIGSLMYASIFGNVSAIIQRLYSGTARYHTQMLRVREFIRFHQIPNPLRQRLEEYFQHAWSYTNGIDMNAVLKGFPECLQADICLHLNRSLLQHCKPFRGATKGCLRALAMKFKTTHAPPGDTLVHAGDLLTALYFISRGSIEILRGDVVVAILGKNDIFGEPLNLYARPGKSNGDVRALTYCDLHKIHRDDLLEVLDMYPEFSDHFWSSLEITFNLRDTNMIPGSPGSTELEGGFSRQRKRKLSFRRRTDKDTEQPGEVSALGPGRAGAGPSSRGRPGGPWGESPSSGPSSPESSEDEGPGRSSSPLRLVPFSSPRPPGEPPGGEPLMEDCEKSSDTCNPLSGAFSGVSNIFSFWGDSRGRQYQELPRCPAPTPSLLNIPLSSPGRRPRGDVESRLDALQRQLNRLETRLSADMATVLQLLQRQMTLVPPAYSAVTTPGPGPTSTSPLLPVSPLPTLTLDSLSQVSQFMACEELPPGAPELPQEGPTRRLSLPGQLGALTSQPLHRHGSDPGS

`Cc1c(C(=O)Nc2ccc([C@]3(C#N)CC[C@@H](N4CCOCC4)CC3)nc2)cnn1-c1ccc(C(F)(F)F)cn1` [Example D1, N-{6-[r-1-Cyano-c-4-(morpholin-4-yl)cyclohexyl]pyridin-3-yl}-5-methyl-1-[5-(trifluoromethyl)pyridin-2-yl]-1H-pyrazole-4-carboxamide hydrochloride] displayed an inhibition at 1 µM against hERG of 22.6%. The pIC50 in data set [1] was 7.10.

`Cc1c(C(=O)Nc2ccc(C3=CCC(N4CCOCC4)CC3)nc2)cnn1-c1ccc(C2CC2)cn1` (centres unmarked) [Example D5, 1-(5-Cyclopropylpyridin-2-yl)-5-methyl-N-{6-[4-(morpholin-4-yl)cyclohex-1-en-1-yl]pyridin-3-yl}-1H-pyrazole-4-carboxamide mesylate] showed an inhibition at 1 µM against hERG of 15.1%. In data set [1], the pIC50 is 6.92.

On hERG, `Cc1c(C(=O)Nc2ccc([C@H]3CC[C@H](N4CCOCC4)CC3)nc2)cnn1-c1ccc(C(F)(F)F)cn1` [Example D6, trans-5-Methyl-N-{6-[4-(morpholin-4-yl)cyclohexyl]pyridin-3-yl}-1-[5-(trifluoromethyl)-pyridin-2-yl]-1H-pyrazole-4-carboxamide mesylate] displayed an inhibition at 1 µM of 24.5%. For the same molecule, the pIC50 in data set [1] was 7.20.

Take `Cc1c(C(=O)Nc2ccc([C@]3(C#N)CC[C@@H](N4CCOCC4)CC3)nc2)cnn1-c1ncc(Cl)cc1Cl` [Example D7, N-{6-[r-1-Cyano-c-4-(morpholin-4-yl)cyclohexyl]pyridin-3-yl}-1-(3,5-dichloropyridin-2-yl)-5-methyl-1H-pyrazole-4-carboxamide hydrochloric acid salt]: at hERG, at 1 µM the inhibition was 24.7%. Besides, the pIC50 in data set [1] was 6.68.

`Cc1c(C(=O)Nc2ccc([C@]3(C#N)CC[C@@H](N4CCC(O)C4)CC3)nc2)cnn1-c1ccc(C(F)(F)F)cn1` (some centres unmarked) [Example D13, N-{6-[r-1-Cyano-c-4-(3-hydroxypyrrolidin-1-yl)cyclohexyl]pyridin-3-yl}-5-methyl-1-[5-(trifluoromethyl)pyridin-2-yl]-1H-pyrazole-4-carboxamide] gave an inhibition at 1 µM against hERG of 22%. Besides, the pIC50 in data set [1] is 6.81.

The molecule `Cc1c(C(=O)Nc2ccc([C@]3(C#N)CC[C@@H](N4CCOCC4)CC3)nc2)cnn1-c1ncc(C(F)(F)F)cc1F` [Example D14, N-{6-[r-1-Cyano-c-4-(morpholin-4-yl)cyclohexyl]pyridin-3-yl}-1-[3-fluoro-5-(trifluoromethyl)pyridin-2-yl]-5-methyl-1H-pyrazole-4-carboxamide] came in with an inhibition at 1 µM at hERG of 6.4%. The pIC50 in data set [1] was 6.79.

`CO[C@H]1CC[C@](C#N)(c2ccc(NC(=O)c3cnn(-c4ccc(C)cc4)c3C)cn2)CC1` [Example D18, N-{6-[r-1-Cyano-c-4-methoxycyclohexyl]pyridin-3-yl}-5-methyl-1-(4-methylphenyl)-1H-pyrazole-4-carboxamide] gave an inhibition at 1 µM against hERG of 7.2%. The pIC50 in data set [1] was 6.60.

For `Cc1cc(NC(=O)c2cnn(-c3ncc(Cl)cc3F)c2C)cnc1C1=CCC(N2CCOCC2)CC1` (centres unmarked) [Example D19, 1-[5-Chloro-3-fluoropyridin-2-yl]-5-methyl-N-{5-methyl-6-[4-(morpholin-4-yl)cyclohex-1-en-1-yl]pyridin-3-yl}-1H-pyrazole-4-carboxamide], at 1 µM the inhibition on hERG was 35.1%. The pIC50 in data set [1] was 7.04.

Regarding `COc1cc(NC(=O)c2cnn(-c3ccc(C(F)(F)F)cn3)c2C)cnc1C1=CCC(N(C)C(=O)C(C)(C)C)CC1` (centres unmarked) [Example K69, N-(6-{4-[N-(2,2-Dimethylpropion-1-yl)-N-methylamino]cyclohex-1-en-1-yl}-5-methoxypyridin-3-yl)-5-methyl-1-[5-(trifluoromethyl)pyridin-2-yl]-1H-pyrazole-4-carboxamide], the inhibition at 1 µM on hERG stood at 1.3%.
